Patent US7179832B2, “Glycogen synthase kinase 3β inhibitor, composition and process for the preparation thereof” (Crystalgenomics, Inc., priority 2003, dated 2007)
Read-outs that look alike come from different tables or passages of the source.

Target: GSK-3β (Homo sapiens, UniProt P49841)
Experiment: Assay for GSK-3β inhibiting activity (32P-ATP, phospho-CREB peptide substrate, filter paper, CPM)
Type: biochemical
Protocol: Assay for GSK-3β inhibiting activity
First, PCR (polymerase chain reaction) was carried out using human DNA as a template as well as primers which were designed to correspond to the 3′- and 5′ ends of the polynucleotide coding human GSK-3β gene (Genbank Accession No.: L33801). The BamH1/XhoI fragment of the amplified PCR product thus obtained was inserted into the pGex vector between the BamH1 and XhoI sites, and the vector obtained was transformed into E. coli BL21(DE3). The transformed cells thus obtained was incubated in […] (1% Bacto-trypton, 0.5% yeast extract, 1% NaCl) containing ampicillin ([…]) until the optical density at 600 nm reached about 0.5. The cultured mixture was cooled to 18° C. and isopropyl β-D-thiogalacto-pyranoside (IPTG) was added thereto to a final concentration of 0.5 mM. After 16 hours, the resultant was centrifuged at 10,000×g for 10 min, the collected cells were suspended in a buffer solution (30 mM Tris-HCl (pH 7.5), 100 mM NaCl, 5% glycerol, 2 mM DTT) and the cells were disrupted using Sonic Dismembrator (Fisher, U.S.A.) in a ice bath. The resulting solution was centrifuged at 16,000 rpm for 30 minutes. […] The purified GSK-3β protein was diluted in a buffer solution (20 mM HEPES (pH 7.5), 5% glycerol, 2 mM DTT) to a final concentration of 50 mM NaCl and the resulting solution was subjected to mono S column chromatography (eluent: linear gradient from 0M to 1M NaCl buffer) using mono S column (Pharmacia Biotech, U.S.A.) equilibrated in the same buffer solution to obtain GSK-3β protein.
The reaction was stopped by adding 5 μl of 5% phosphoric acid to 25 μl of the resulting solution. The resulting mixture was centrifuged at 15,000 rpm for 10 min, 20 μl of the supernatant was added dropwise to Whatman p81 filter paper, and then, the resulting filter paper was washed with 0.5% phosphate buffer for 10 min. The filter paper was further washed 3 times and the enzymatic activity was determined by examining the extent of phospho-CREB peptide phosphorylation which is represented by the unit of count per minute (CPM), measured with a β-counter (Packard, USA).
The GSK-3β inhibiting activity was then calculated in accordance with the following equation:
[formula] wherein the blank represents a value obtained without the use of the enzyme and the compound of the present invention, and the control, in the absence of the compound of the present invention.

[1] = GSK-3β inhibiting activity, 100 nM GSK-3β protein, 100 μM phospho-CREB peptide, 100 μM ATP, 30° C. for 1 hour, read-out: IC50

Sequence of GSK-3β (P49841 whole entry): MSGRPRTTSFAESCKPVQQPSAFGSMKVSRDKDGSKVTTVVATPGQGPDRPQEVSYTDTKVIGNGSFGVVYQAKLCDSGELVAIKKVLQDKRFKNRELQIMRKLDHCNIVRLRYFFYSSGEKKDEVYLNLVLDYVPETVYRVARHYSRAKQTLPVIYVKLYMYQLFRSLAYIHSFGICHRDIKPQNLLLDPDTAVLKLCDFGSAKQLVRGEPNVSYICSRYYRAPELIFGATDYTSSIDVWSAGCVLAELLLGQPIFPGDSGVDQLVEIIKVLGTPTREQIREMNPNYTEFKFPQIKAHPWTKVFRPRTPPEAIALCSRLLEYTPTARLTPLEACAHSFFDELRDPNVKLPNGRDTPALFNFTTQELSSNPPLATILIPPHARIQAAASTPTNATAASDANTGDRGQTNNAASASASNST

`NC(=O)c1ccc(O)c2[nH]c(-c3ccccc3)nc12` [Compound 1, 7-hydroxy-2-phenyl-1H-benzoimidazole-4-carboxylic acid amide] gave an IC50 [1] of over 1 µM.
`Nc1ccc(NC(=O)c2ccc(O)c3[nH]c(-c4ccccc4)nc23)cc1` [Compound 4] was tested, and the IC50 [1] was over 1 µM.
Molecule `O=C(NC1CCC(O)CC1)c1ccc(O)c2[nH]c(-c3ccccc3)nc12` (stereo not drawn) [Compound 5] has an IC50 [1] of 0.3 µM.
With `O=C(Nc1ccc(CO)cc1)c1ccc(O)c2[nH]c(-c3ccccc3)nc12` [Compound 6] the IC50 [1] was over 1 µM.
`NCCc1ccc(NC(=O)c2ccc(O)c3[nH]c(-c4ccccc4)nc23)cc1` [Compound 8] showed an IC50 [1] of over 1 µM.
In the case of `Cc1ccc(S(=O)(=O)NCCc2ccc(NC(=O)c3ccc(O)c4[nH]c(-c5ccccc5)nc34)cc2)cc1` [Compound 9], the IC50 [1] is reported as 0.18 µM.
Work on `CS(=O)(=O)NCCc1ccc(NC(=O)c2ccc(O)c3[nH]c(-c4ccccc4)nc23)cc1` [Compound 10] yielded an IC50 [1] of 0.04 µM.
In the case of `O=C(Nc1ccc(CCN2C(=O)c3ccccc3C2=O)cc1)c1ccc(O)c2[nH]c(-c3ccccc3)nc12` [Compound 11], the IC50 [1] is reported as over 5 µM.
Molecule `O=C(Nc1ccc(CCNS(=O)(=O)c2cccs2)cc1)c1ccc(O)c2[nH]c(-c3ccccc3)nc12` [Compound 12] has an IC50 [1] of 0.2 µM.
In the case of `CCS(=O)(=O)NCCc1ccc(NC(=O)c2ccc(O)c3[nH]c(-c4ccccc4)nc23)cc1` [Compound 13], the IC50 [1] is reported as 0.36 µM.
Work on `O=C(Nc1ccccc1)c1ccc(O)c2[nH]c(-c3ccc(Cl)cc3)nc12` [Compound 14] yielded an IC50 [1] of over 1 µM.
Work on `O=C(NC1CCC(O)CC1)c1ccc(O)c2[nH]c(-c3ccc(Cl)cc3)nc12` (stereo not drawn) [Compound 15] yielded an IC50 [1] of 0.11 µM.
`Cc1ccc(S(=O)(=O)NCCc2ccc(NC(=O)c3ccc(O)c4[nH]c(-c5ccc(Cl)cc5)nc34)cc2)cc1` [Compound 16] gave an IC50 [1] of 0.7 µM.
For `CS(=O)(=O)NCCc1ccc(NC(=O)c2ccc(O)c3[nH]c(-c4ccc(Cl)cc4)nc23)cc1` [Compound 17], the IC50 [1] was 0.24 µM.
`O=C(Nc1ccc(CCN2C(=O)c3ccccc3C2=O)cc1)c1ccc(O)c2[nH]c(-c3ccc(Cl)cc3)nc12` [Compound 18] gave an IC50 [1] of over 1 µM.
`O=C(Nc1ccc(CCNS(=O)(=O)c2cccs2)cc1)c1ccc(O)c2[nH]c(-c3ccc(Cl)cc3)nc12` [Compound 19] gave an IC50 [1] of over 1 µM.
For `CCS(=O)(=O)NCCc1ccc(NC(=O)c2ccc(O)c3[nH]c(-c4ccc(Cl)cc4)nc23)cc1` [Compound 20], the IC50 [1] was 4.1 µM.
`O=C(Nc1ccccc1)c1ccc(O)c2[nH]c(-c3ccc(Cl)cc3Cl)nc12` [Compound 22] was tested, and the IC50 [1] was over 1 µM.
In the case of `O=C(NC1CCC(O)CC1)c1ccc(O)c2[nH]c(-c3ccc(Cl)cc3Cl)nc12` (stereo not drawn) [Compound 23], the IC50 [1] is reported as 0.68 µM.
In the case of `NCCc1ccc(NC(=O)c2ccc(O)c3[nH]c(-c4ccc(Cl)cc4Cl)nc23)cc1` [Compound 24], the IC50 [1] is reported as over 5 µM.
In the case of `Nc1ccc(NC(=O)c2ccc(O)c3[nH]c(-c4ccc(Cl)cc4Cl)nc23)cc1` [Compound 25], the IC50 [1] is reported as over 1 µM.
Work on `O=C(Nc1ccc(CO)cc1)c1ccc(O)c2[nH]c(-c3ccc(Cl)cc3Cl)nc12` [Compound 26] yielded an IC50 [1] of over 1 µM.
`O=C(Nc1ccc(CCO)cc1)c1ccc(O)c2[nH]c(-c3ccc(Cl)cc3Cl)nc12` [Compound 27] showed an IC50 [1] of over 1 µM.
`Cc1ccc(S(=O)(=O)NCCc2ccc(NC(=O)c3ccc(O)c4[nH]c(-c5ccc(Cl)cc5Cl)nc34)cc2)cc1` [Compound 28] was tested, and the IC50 [1] was 0.74 µM.
Molecule `CS(=O)(=O)NCCc1ccc(NC(=O)c2ccc(O)c3[nH]c(-c4ccc(Cl)cc4Cl)nc23)cc1` [Compound 29] has an IC50 (IC50 (μM)) of 0.08 µM.
For `O=C(Nc1ccc(CCN2C(=O)c3ccccc3C2=O)cc1)c1ccc(O)c2[nH]c(-c3ccc(Cl)cc3Cl)nc12` [Compound 30], the IC50 [1] was over 1 µM.
In the case of `O=C(Nc1ccc(CCNS(=O)(=O)c2cccs2)cc1)c1ccc(O)c2[nH]c(-c3ccc(Cl)cc3Cl)nc12` [Compound 31], the IC50 [1] is reported as over 1 µM.
With `CCS(=O)(=O)NCCc1ccc(NC(=O)c2ccc(O)c3[nH]c(-c4ccc(Cl)cc4Cl)nc23)cc1` [Compound 32] the IC50 [1] was 0.5 µM.
For `CS(=O)(=O)NCCc1ccc(NC(=O)c2ccc(O)c3[nH]c(-c4ccc(F)cc4)nc23)cc1` [Compound 33], the IC50 [1] was over 1 µM.
With `Cc1ccc(S(=O)(=O)NCCc2ccc(NC(=O)c3ccc(O)c4[nH]c(-c5ccc(F)cc5)nc34)cc2)cc1` [Compound 34] the IC50 [1] was over 1 µM.
`CCS(=O)(=O)NCCc1ccc(NC(=O)c2ccc(O)c3[nH]c(-c4ccc(F)cc4)nc23)cc1` [Compound 35] gave an IC50 [1] of 0.007 µM.
`O=C(Nc1ccc(N2CCOCC2)cc1)c1ccc(O)c2[nH]c(-c3ccc(F)cc3)nc12` [Compound 36] was tested, and the IC50 [1] was over 1 µM.
Molecule `CS(=O)(=O)NCCc1ccc(NC(=O)c2ccc(O)c3[nH]c(-c4ccc(F)cc4F)nc23)cc1` [Compound 37] has an IC50 [1] of over 1 µM.
With `Cc1ccc(S(=O)(=O)NCCc2ccc(NC(=O)c3ccc(O)c4[nH]c(-c5ccc(F)cc5F)nc34)cc2)cc1` [Compound 38] the IC50 [1] was over 1 µM.
`CCS(=O)(=O)NCCc1ccc(NC(=O)c2ccc(O)c3[nH]c(-c4ccc(F)cc4F)nc23)cc1` [Compound 39] showed an IC50 [1] of over 1 µM.
`Cc1ccc(S(=O)(=O)NCCc2ccc(NC(=O)c3ccc(O)c4[nH]c(-c5ccc(F)cc5Cl)nc34)cc2)cc1` [Compound 40] was tested, and the IC50 [1] was over 1 µM.
`CS(=O)(=O)NCCc1ccc(NC(=O)c2ccc(O)c3[nH]c(-c4ccc(F)cc4Cl)nc23)cc1` [Compound 41] gave an IC50 [1] of over 1 µM.
For `CCS(=O)(=O)NCCc1ccc(NC(=O)c2ccc(O)c3[nH]c(-c4ccc(F)cc4Cl)nc23)cc1` [Compound 42], the IC50 [1] was over 1 µM.
With `Cc1ccc(S(=O)(=O)NCCc2ccc(NC(=O)c3ccc(O)c4[nH]c(-c5ccc(F)c(Cl)c5)nc34)cc2)cc1` [Compound 43] the IC50 [1] was over 1 µM.
For `CCS(=O)(=O)NCCc1ccc(NC(=O)c2ccc(O)c3[nH]c(-c4ccc(F)c(Cl)c4)nc23)cc1` [Compound 44], the IC50 [1] was over 1 µM.
`CS(=O)(=O)NCCc1ccc(NC(=O)c2ccc(O)c3[nH]c(-c4ccc(F)c(Cl)c4)nc23)cc1` [Compound 45] showed an IC50 [1] of 0.02 µM.
`O=C(c1ccc(O)c2[nH]c(-c3ccc(Cl)cc3Cl)nc12)N1CCCCC1` [Compound 48] showed an IC50 [1] of over 5 µM.
For `O=C(NCc1ccc([N+](=O)[O-])cc1)c1ccc(O)c2[nH]c(-c3ccccc3)nc12` [Compound 49], the IC50 [1] was 0.6 µM.
For `Nc1ccc(CNC(=O)c2ccc(O)c3[nH]c(-c4ccccc4)nc23)cc1` [Compound 50], the IC50 [1] was 0.6 µM.
In the case of `O=C(NCc1ccccc1)c1ccc(O)c2nc(-c3ccccc3)[nH]c12` [Compound 51], the IC50 [1] is reported as 0.87 µM.
With `O=C(NCc1ccccc1)c1ccc(O)c2[nH]c(-c3ccc(Cl)cc3)nc12` [Compound 52] the IC50 [1] was over 1 µM.
In the case of `O=C(NCc1ccc([N+](=O)[O-])cc1)c1ccc(O)c2[nH]c(-c3ccc(Cl)cc3)nc12` [Compound 53], the IC50 [1] is reported as over 1 µM.
`Nc1ccc(CNC(=O)c2ccc(O)c3[nH]c(-c4ccc(Cl)cc4)nc23)cc1` [Compound 54] showed an IC50 [1] of over 1 µM.
With `O=C(NCc1ccccc1)c1ccc(O)c2[nH]c(-c3ccc(Cl)cc3Cl)nc12` [Compound 55] the IC50 [1] was over 1 µM.
`O=C(NCc1ccc([N+](=O)[O-])cc1)c1ccc(O)c2[nH]c(-c3ccc(Cl)cc3Cl)nc12` [Compound 56] showed an IC50 [1] of 0.7 µM.
`O=C(NCCc1ccccc1)c1ccc(O)c2nc(-c3ccccc3)[nH]c12` [Compound 57] gave an IC50 [1] of 0.58 µM.
With `O=C(NCCc1ccc(O)cc1)c1ccc(O)c2[nH]c(-c3ccccc3)nc12` [Compound 58] the IC50 [1] was 0.67 µM.
In the case of `O=C(NCCc1ccc([N+](=O)[O-])cc1)c1ccc(O)c2[nH]c(-c3ccccc3)nc12` [Compound 59], the IC50 [1] is reported as 0.16 µM.
For `Nc1ccc(CCNC(=O)c2ccc(O)c3nc(-c4ccccc4)[nH]c23)cc1` [Compound 60], the IC50 [1] was 0.35 µM.
With `NCCNC(=O)c1ccc(O)c2[nH]c(-c3ccccc3)nc12` [Compound 61] the IC50 [1] was over 1 µM.
`COc1cc(CCNC(=O)c2ccc(O)c3[nH]c(-c4ccccc4)nc23)ccc1O` [Compound 62] was tested, and the IC50 [1] was over 1 µM.
`COc1ccc(CCNC(=O)c2ccc(O)c3[nH]c(-c4ccccc4)nc23)cc1O` [Compound 63] was tested, and the IC50 [1] was 0.45 µM.
In the case of `CS(=O)(=O)Nc1ccc(CCNC(=O)c2ccc(O)c3[nH]c(-c4ccccc4)nc23)cc1` [Compound 64], the IC50 [1] is reported as 0.03 µM.
With `Cc1ccc(S(=O)(=O)Nc2ccc(CCNC(=O)c3ccc(O)c4[nH]c(-c5ccccc5)nc34)cc2)cc1` [Compound 65] the IC50 [1] was 0.06 µM.
Work on `O=C(NCCN1CCOCC1)c1ccc(O)c2[nH]c(-c3ccccc3)nc12` [Compound 66] yielded an IC50 [1] of over 1 µM.
With `O=C(NCCc1ccc(N2C(=O)c3ccccc3C2=O)cc1)c1ccc(O)c2[nH]c(-c3ccccc3)nc12` [Compound 67] the IC50 [1] was 0.16 µM.
Work on `O=C(NCCNc1ccc([N+](=O)[O-])cn1)c1ccc(O)c2[nH]c(-c3ccccc3)nc12` [Compound 69] yielded an IC50 [1] of over 1 µM.
For `O=C(NCCc1ccccn1)c1ccc(O)c2[nH]c(-c3ccccc3)nc12` [Compound 70], the IC50 [1] was over 1 µM.
